{
  "source": "patent US20220226321A1",
  "about": "“INHIBITOR OF MNK FOR THE TREATMENT OF NEUROPATHIC PAIN” (Board of Regents, The University of Texas System, priority 2019, published 2022)",
  "key": {"mice": {"system": "mice", "assay": "rotarod", "type": "in vivo, mouse", "settings": "10 mg/kg i.p., 1 hour", "protocol": "Rotarod. Motor function was assessed using a rotarod (IITC Life Science rotarod series 8) with ramp speed (20 rpm acceleration) at a starting speed of […] for a maximum of 120s. The time until each animal fell was recorded for each trial. Naïve mice were trained for 1 trial, and then 2 baseline trials were conducted and scores for both trials were averaged."}, "DRG neurons": {"system": "DRG neurons", "assay": "whole-cell patch clamp of cultured DRG neurons treated with IL-6 and eFT508", "type": "cell-based, mouse", "protocol": "Phosphorylation of the 5′ cap-binding protein eIF4E by MAPK interacting kinases MNK1/2 is important for nociceptor sensitization and the development of chronic pain. IL-6 induced DRG nociceptor excitability is attenuated in mice lacking eIF4E phosphorylation, in MNK1/2^−/− mice and by the nonselective MNK1/2 inhibitor cercosporamide. […] Dorsal root ganglion (DRG) neurons were cultured from male and female ICR mice, 4-7 weeks old. […] Whole-cell patch clamp recordings were done on small diameter neurons (20-30 pF) to measure membrane excitability in response to ramp depolarization. […] These findings are consistent with a model wherein MNK-eIF4E signaling controls the translation of signaling factors that regulate T-type VGCCs in response to IL-6 treatment."}, "infralimbic cortex": {"system": "infralimbic cortex", "assay": "axon initial segment (AIS) length in infralimbic cortex, immunohistochemistry", "type": "in vivo, mouse", "settings": "10 mg/kg p.o. daily for 7 days, male SNI mice", "protocol": "Immunohistochemistry. All mice were perfused at 3 weeks post-surgery (the day after rule-shifting). Mice were deeply anesthetized with a mixture of ketamine (80 mg/kg) and xylazine (12 mg/kg; i.p.) and then transcardially perfused with 1× phosphate buffered saline (PBS; 4° C., pH 7.4) followed by 10% formalin in 0.1 M phosphate buffer (PB; 4° C., pH 7.4; 25 mL at a flow rate of […]) using a perfusion pump. Brains were dissected and transferred […] to a 30% sucrose in 0.1M PB. Once the brains sunk in sucrose, they were frozen in OCT over dry ice. Coronal sections (30 μm) were cut using a cryostat and a hole was placed in the left hemisphere to demarcate the left (ipsilateral) hemisphere. Free floating sections were then washed in 0.1M PB, and then incubated in blocking solution (10% Normal Goat Serum, 0.3% Triton-X 100 in 0.1M PB) for 1 hr at room temperature with gentle rocking/agitation. Sections were incubated in primary antibody (mouse-anti-AnkyrinG; UC Davis/NIH NeuroMab Facility, clone N106/36 RRID:AB_10673030; 2 μg/ml working concentration) diluted in blocking solution for 3 hrs at room temperature. […]\nImage Analysis. […] For each image, 30 segments were analyzed in layers 2/3 and layers 5/6 of the ipsilateral and contralateral IL in CellSens (Olympus) using the polyline measure tool. […]"}, "[1]": {"system": "models which harbor activating MyD88 mutations", "settings": "in vivo, multiple models; cited from earlier work"}, "paclitaxel-treated mice": {"system": "paclitaxel-treated mice", "assay": "thermal latency (Hot/Cold plate) in paclitaxel-induced CIPN", "type": "in vivo, mouse", "settings": "for thermal hyperalgesia: acute treatment", "protocol": "Thermal and mechanical testing. Mice were housed on 12-hr light-/dark cycles with lights on at 7:00 AM. Mice had food and water available ad libitum. All behavioral experiments were performed between the hours of 9:00 AM and 6:00 PM. Mice were randomized to groups from multiple cages to avoid using mice from experimental groups that were cohabitating. Sample size was estimated as […] using a power calculation with 80% power, expectations of 50% effect size, with alpha set to 0.05. The number of animals used in each experiment was based on available animals of the appropriate sex and age but was at least n=5 for experiments. Standard deviation for power calculations was based on previously published data using similar models. Mice were habituated for 1 hr to clear acrylic behavioral chambers before beginning the experiment. Mechanical paw withdrawal thresholds were measured using the up-down method (Chaplan et al., 1994) with calibrated Von Frey filaments (Stoelting Company, Wood Dale, Ill.). Thermal latency was measured using a Hot/Cold plate setting the temperature at 49, 50 and 52° C. […] The experimenter was blinded to the genotype of the mice and drug condition in all experiments."}},
  "data": [
    {"smiles": "Cc1cc(Nc2cc(N)ncn2)c(=O)n2c1C(=O)NC21CCCCC1", "note": "[eFT508, Tomivosertib]", "values": [
      {"measurement": "rotarod performance vs naïve mice", "setting": "mice", "value": "no significant difference"},
      {"measurement": "latency to the first action potential in the ramp protocol", "setting": "DRG neurons; IL-6, eFT508 pretreatment", "value": "rescued"},
      {"measurement": "action potential firing in response to ramp depolarization", "setting": "DRG neurons; one hr IL-6, eFT508 pretreatment followed by IL-6", "value": "blocked"},
      {"measurement": "SNI-induced changes in AIS length", "setting": "infralimbic cortex", "value": "reversed"},
      {"measurement": "anti-tumor activity", "setting": "[1]", "value": "significant anti-tumor activity"},
      {"measurement": "thermal hypersensitivity", "setting": "paclitaxel-treated mice; 10 mg/kg after full development of CIPN", "value": "reversal"},
      {"measurement": "thermal hyperalgesia", "setting": "paclitaxel-treated mice; at 3 hrs", "value": "did not significantly attenuate"},
      {"measurement": "thermal hyperalgesia", "setting": "paclitaxel-treated mice; at 24 hrs", "value": "a significant effect was observed"}
    ]}
  ]
}
